The values below come from ChEMBL document CHEMBL1275440, “In vitro activity of telavancin against resistant gram-positive bacteria” (2008).

Each structure is given as a SMILES string. ≈ marks a conversion by molar mass, not a printed value. Calls of active or inactive are those of the source. The rule behind the calls is not given here. Where only a bound is given, the exact number is not on record here.

Assay [1] relates to Enterococcus faecalis. The assay is described as follows: Antibacterial activity against vancomycin resistant Enterococcus faecalis VanA clinical isolate by broth microdilution method. The assay is classed as functional.
For assay [2], the system named is Enterococcus faecium. Kind of assay: Antibacterial activity against vancomycin resistant Enterococcus faecium VanA clinical isolate by broth microdilution method. The class given is functional.
The subject of assay [3] is Enterococcus faecalis. Kind of assay: Antibacterial activity against vancomycin resistant Enterococcus faecalis VanB clinical isolate by broth microdilution method. The assay is classed as functional.
In assay [4] the test system is Enterococcus faecium. The assay is described as follows: Antibacterial activity against vancomycin resistant Enterococcus faecium VanB clinical isolate assessed as susceptibility level by broth microdilution method. The assay is classed as functional.
Assay [5] concerns Enterococcus faecium. The assay is described as follows: Antibacterial activity against vancomycin resistant Enterococcus faecium VanA clinical isolate assessed as susceptibility level by broth microdilution method. The class given is functional.
Assay [6] deals with Enterococcus faecalis.
Assay [7] deals with Enterococcus faecalis. Kind of assay: Antibacterial activity against vancomycin resistant Enterococcus faecalis VanA clinical isolate assessed as susceptibility level by broth microdilution method. The assay is classed as functional.
Assay [8] deals with Enterococcus faecalis. The assay is described as follows: Antibacterial activity against vancomycin resistant Enterococcus faecalis VanB clinical isolate assessed as susceptibility level by broth microdilution method. The class given is functional.
Assay [9] concerns Enterococcus faecium. Kind of assay: Antibacterial activity against vancomycin resistant Enterococcus faecium VanB clinical isolate by broth microdilution method. The assay is classed as functional.
Assay [10] deals with Staphylococcus haemolyticus. Kind of assay: Antibacterial activity against methicillin resistant coagulase-negative Staphylococcus haemolyticus clinical isolate by broth microdilution method. The class given is functional.
Assay [11] has as its system Staphylococcus aureus. Kind of assay: Antibacterial activity against methicillin resistant Staphylococcus aureus clinical isolate assessed as susceptibility level by broth microdilution method. The class given is functional.
For assay [12], the system named is Staphylococcus saprophyticus. The assay is described as follows: Antibacterial activity against methicillin resistant coagulase-negative Staphylococcus saprophyticus clinical isolate assessed as susceptibility level by broth microdilution method. The class given is functional.
Assay [13] relates to Staphylococcus auricularis. The assay is described as follows: Antibacterial activity against methicillin resistant coagulase-negative Staphylococcus auricularis clinical isolate assessed as susceptibility level by broth microdilution method. The assay is classed as functional.
Assay [14] relates to Staphylococcus capitis. Kind of assay: Antibacterial activity against methicillin resistant coagulase-negative Staphylococcus capitis clinical isolate by broth microdilution method. The class given is functional.
Assay [15] relates to Staphylococcus haemolyticus. The assay is described as follows: Antibacterial activity against methicillin resistant coagulase-negative Staphylococcus haemolyticus clinical isolate assessed as susceptibility level by broth microdilution method. The assay is classed as functional.
Assay [16] concerns Staphylococcus saprophyticus. The assay is described as follows: Antibacterial activity against methicillin resistant coagulase-negative Staphylococcus saprophyticus clinical isolate by broth microdilution method. The assay is classed as functional.
The nature of assay [17]: Antibacterial activity against methicillin resistant coagulase-negative Staphylococcus hominis subsp. novobiosepticus clinical isolate assessed as susceptibility level by broth microdilution method. The class given is functional.
Assay [18] in a line: Antibacterial activity against methicillin resistant coagulase-negative Staphylococcus hominis subsp. novobiosepticus clinical isolate by broth microdilution method. The assay is classed as functional.
Assay [19] relates to Staphylococcus capitis. The assay is described as follows: Antibacterial activity against methicillin resistant coagulase-negative Staphylococcus capitis clinical isolate assessed as susceptibility level by broth microdilution method. The class given is functional.
Assay [20] has as its system Staphylococcus auricularis. Kind of assay: Antibacterial activity against methicillin resistant coagulase-negative Staphylococcus auricularis clinical isolate by broth microdilution method. The class given is functional.
Assay [21] relates to Staphylococcus aureus. Kind of assay: Antibacterial activity against methicillin resistant Staphylococcus aureus clinical isolate by broth microdilution method. The class given is functional.
The test system of assay [22] is Staphylococcus epidermidis. Kind of assay: Antibacterial activity against methicillin resistant Staphylococcus epidermidis clinical isolate assessed as susceptibility level by broth microdilution method. The assay is classed as functional.
Assay [23] deals with Staphylococcus epidermidis. Kind of assay: Antibacterial activity against methicillin resistant Staphylococcus epidermidis clinical isolate by broth microdilution method. The class given is functional.

For the molecule `CC1(C)S[C@@H]2[C@H](NC(=O)[C@H](N)c3ccccc3)C(=O)N2[C@H]1C(=O)O` [AMPICILLIN], the values for the MIC50 with Enterococcus faecalis [1], with Enterococcus faecium [2] and in the assay on Enterococcus faecium [9] were 1 µg/mL (≈ 2.86 µM), 64 µg/mL (≈ 183 µM) and 64 µg/mL (≈ 183 µM), respectively. Also, the MIC90 worked out at 64 µg/mL (≈ 183 µM) with Enterococcus faecalis [1], 128 µg/mL (≈ 366 µM) against Enterococcus faecium [2] and 64 µg/mL (≈ 183 µM) against Enterococcus faecium [9]. Moreover, the minimum inhibitory concentration (MIC) with Enterococcus faecalis [3] was at most 0.25 µg/mL. In addition, the Activity in the assay on Enterococcus faecium [4] was determined as 22%; in the assay with Enterococcus faecium [5], 0%; with Enterococcus faecalis [8] it was 60%. For the same molecule, the MIC50 result in the assay on Enterococcus faecalis [6] was “inactive”. Besides, in the assay with Enterococcus faecalis [6], the MIC90 result is “inactive”. Moreover, the “Percent of isolates susceptible” value in the assay on Enterococcus faecalis [7] came out at 81%.
Regarding `CC(=O)N[C@@H]1[C@H](Oc2c3cc4cc2Oc2ccc(cc2Cl)[C@@H](O[C@@H]2O[C@@H](CO)[C@@H](O)[C@H](O)[C@@H]2NC(C)=O)[C@@H]2NC(=O)[C@H](NC(=O)[C@@H]4NC(=O)[C@H]4NC(=O)[C@@H](Cc5ccc(c(Cl)c5)O3)NC(=O)[C@H](N)c3ccc(O)c(c3)Oc3cc(O)cc4c3)c3ccc(O)c(c3)-c3c(O[C@H]4O[C@H](CO)[C@@H](O)[C@@H](O)[C@@H]4O)cc(O)cc3[C@@H](C(=O)O)NC2=O)O[C@@H](CO)[C@@H](O)[C@@H]1O`, the MIC50 in [10] is 4 µg/mL (≈ 2.26 µM); in the assay on Enterococcus faecalis [1] it was 64 µg/mL (≈ 36.2 µM); in the assay on Enterococcus faecium [2], 64 µg/mL (≈ 36.2 µM); against Staphylococcus capitis [14], 4 µg/mL (≈ 2.26 µM); in assay [16], 4 µg/mL (≈ 2.26 µM); in [18], 4 µg/mL (≈ 2.26 µM). Besides, the MIC50 in assay [20] turned out to be 4 µg/mL (≈ 2.26 µM); against Staphylococcus aureus [21] (Staphylococcus aureus), 0.5 µg/mL (≈ 0.283 µM); in assay [23], 8 µg/mL (≈ 4.53 µM); in the assay on Enterococcus faecium [9] it was 0.5 µg/mL (≈ 0.283 µM). The MIC90 was 32 µg/mL (≈ 18.1 µM) in assay [10]; over 128 µg/mL in the assay with Enterococcus faecalis [1]; over 128 µg/mL with Enterococcus faecium [2]; 32 µg/mL (≈ 18.1 µM) against Staphylococcus capitis [14]; 32 µg/mL (≈ 18.1 µM) in [16]; 32 µg/mL (≈ 18.1 µM) in assay [18]. Further, the MIC90 in assay [20] was 32 µg/mL (≈ 18.1 µM); with Staphylococcus aureus [21] (Staphylococcus aureus), 1 µg/mL (≈ 0.566 µM); in assay [23], 16 µg/mL (≈ 9.05 µM); against Enterococcus faecium [9], 1 µg/mL (≈ 0.566 µM). Moreover, the Activity in the assay with Staphylococcus aureus [11] came to 32%; in assay [12], 88%; in assay [13] it was 88%; with Enterococcus faecium [4], 100%; in [15] it was 88%; in the assay with Enterococcus faecium [5], 0%. Further, the Activity in [17] came out at 88%; with Staphylococcus capitis [19], 88%; in the assay on Enterococcus faecalis [8], 100%; in the assay with Staphylococcus aureus [21] it was 32%; in assay [22], 81%. The molecule further yielded an MIC against Enterococcus faecalis [3] of 0.5 µg/mL (≈ 0.283 µM). The MIC50 entry with Enterococcus faecalis [6] is “inactive”. For the same molecule, the MIC90 result in the assay on Enterococcus faecalis [6] was “inactive”. For the same molecule, in the assay with Enterococcus faecalis [7], the “Percent of isolates susceptible” value stood at 0%.
